Test results taken from patent publication US10328053B2 (Gilead Sciences, Inc., priority 2016, dated 2019).

Assay: Hepatic Stability Assay (in vitro half-life method)
Format: in vitro ADME
Design: dose or concentration left out as unconfirmed
Settings: pooled cryopreserved hepatocytes, 37° C., 1×10^6 cells/mL, 0-6 hours, LC-MS/MS, 39.5 hours is the maximum detectable half life, read-out: t½ (converted)
Description: Hepatic Stability Assay The metabolic stability of certain compounds disclosed herein was assessed in vitro in pooled cryopreserved hepatocytes using the in vitro half-life method. Incubations were at 37° C. and final concentrations in the incubations were 1×10^6 cells/mL and […] test concentration of the compound. Aliquots were sequentially removed after 0, 1, 3 and 6 hours and analyzed by LC-MS/MS. In vitro half-life was determined by measuring the rate of disappearance of the compound and then scaled to predicted hepatic clearance using the well-stirred model. […] As such, compounds having a value of 39.5 may have a half live that exceeds 39.5 hours.

half-life [h]	Compound
35.1	CNC(=O)C1(NC(=O)C(=O)c2c(C)c(C(=O)Nc3ccc(F)c(Cl)c3)n3c2CCC3)CC(F)(F)C1 [Example 3, N-(3-chloro-4-fluorophenyl)-7-(2-((3,3-difluoro-1-(methylcarbamoyl)cyclobutyl)amino)-2-oxoacetyl)-6-methyl-2,3-dihydro-1H-pyrrolizine-5-carboxamide]
20.8	CNC(=O)C1(NC(=O)C(=O)c2c(C)c(C(=O)Nc3cc(F)c(F)c(Cl)c3)n3c2CCC3)CC(F)(F)C1 [Example 129, N-(3-chloro-4,5-difluorophenyl)-7-(2-((3,3-difluoro-1-(methylcarbamoyl)cyclobutyl)amino)-2-oxoacetyl)-6-methyl-2,3-dihydro-1H-pyrrolizine-5-carboxamide]
7.3	Cc1c(C(=O)C(=O)NC2(C)CS(=O)(=O)C2)c2n(c1C(=O)Nc1ccc(F)c(Cl)c1)[C@@H]1C[C@@H]1C2 [Example 71, (1aR,6aR)—N-(3-chloro-4-fluorophenyl)-4-methyl-5-(2-((3-methyl-1,1-dioxidothietan-3-yl)amino)-2-oxoacetyl)-1,1a,6,6a-tetrahydrocyclopropa[b]pyrrolizine-3-carboxamide]
19.6	Cc1c(C(=O)C(=O)NC2(c3c[nH]nn3)CC2)c2n(c1C(=O)Nc1cc(Cl)c(F)cc1F)CCC2 [Example 91, 7-(2-((1-(1H-1,2,3-triazol-4-yl)cyclopropyl)amino)-2-oxoacetyl)-N-(5-chloro-2,4-difluorophenyl)-6-methyl-2,3-dihydro-1H-pyrrolizine-5-carboxamide]
14.8	Cc1c(C(=O)C(=O)NC2(c3cn(C)nn3)CC2)c2n(c1C(=O)Nc1ccc(F)c(Cl)c1)CCC2 [Example 98, N-(3-chloro-4-fluorophenyl)-6-methyl-7-(2-((1-(1-methyl-1H-1,2,3-triazol-4-yl)cyclopropyl)amino)-2-oxoacetyl)-2,3-dihydro-1H-pyrrolizine-5-carboxamide]
22.3	Cc1c(C(=O)C(=O)NC2(c3c[nH]nn3)CC(F)(F)C2)c2n(c1C(=O)Nc1ccnc(C(F)F)c1F)CCC2 [Example 59, 7-(2-((3,3-difluoro-1-(1H-1,2,3-triazol-4-yl)cyclobutyl)amino)-2-oxoacetyl)-N-(2-(difluoromethyl)-3-fluoropyridin-4-yl)-6-methyl-2,3-dihydro-1H-pyrrolizine-5-carboxamide]
10.5	Cc1c(C(=O)C(=O)NC2(CO)CC(F)(F)C2)c2n(c1C(=O)Nc1ccc(F)c(Cl)c1)CCC2 [Example 117, N-(3-chloro-4-fluorophenyl)-7-(2-((3,3-difluoro-1-(hydroxymethyl)cyclobutyl)amino)-2-oxoacetyl)-6-methyl-2,3-dihydro-1H-pyrrolizine-5-carboxamide]
16.1	Cc1c(C(=O)C(=O)NC2(C)CS(=O)(=O)C2)c2n(c1C(=O)Nc1cc(F)c(F)c(F)c1)[C@@H]1C[C@@H]1C2 [Example 73, (1aR,6aR)-4-methyl-5-(2-((3-methyl-1,1-dioxidothietan-3-yl)amino)-2-oxoacetyl)-N-(3,4,5-trifluorophenyl)-1,1a,6,6a-tetrahydrocyclopropa[b]pyrrolizine-3-carboxamide]
0.5	CNC(=O)C1(NC(=O)C(=O)c2c(C)c(C(=O)Nc3ccc(F)c(Cl)c3)n3c2CCC3(C)C)CC(F)(F)C1 [Example 15, N-(3-chloro-4-fluorophenyl)-7-(2-((3,3-difluoro-1-(methylcarbamoyl)cyclobutyl)amino)-2-oxoacetyl)-3,3,6-trimethyl-2,3-dihydro-1H-pyrrolizine-5-carboxamide]
0.6	Cc1c(C(=O)C(=O)N[C@H](C)C(F)(F)F)c2n(c1C(=O)Nc1ccc(F)c(Cl)c1)C(C)(C)CC2 [Example 17, (R)—N-(3-chloro-4-fluorophenyl)-3,3,6-trimethyl-7-(2-oxo-2-((1,1,1-trifluoropropan-2-yl)amino)acetyl)-2,3-dihydro-1H-pyrrolizine-5-carboxamide]
9.7	Cc1c(C(=O)C(=O)NC2(C)C[S+]([O-])C2)c2n(c1C(=O)Nc1ccc(F)c(F)c1)CCC2 (stereo not shown) [Example 145, N-(3,4-difluorophenyl)-6-methyl-7-(2-((3-methyl-1-oxidothietan-3-yl)amino)-2-oxoacetyl)-2,3-dihydro-1H-pyrrolizine-5-carboxamide]
6	CNC(=O)C1(NC(=O)C(=O)c2c(C)c(C(=O)Nc3ccc(F)c(Cl)c3)n3c2CCC3C)CC(F)(F)C1 (racemic) [Example 18, N-(3-chloro-4-fluorophenyl)-7-(2-((3,3-difluoro-1-(methylcarbamoyl)cyclobutyl)amino)-2-oxoacetyl)-3,6-dimethyl-2,3-dihydro-1H-pyrrolizine-5-carboxamide]
15.5	Cc1c(C(=O)C(=O)NC2(c3c[nH]nn3)CC(F)(F)C2)c2n(c1C(=O)Nc1ccnc(C(F)F)c1)CCC2 [Example 55, 7-(2-((3,3-difluoro-1-(1H-1,2,3-triazol-4-yl)cyclobutyl)amino)-2-oxoacetyl)-N-(2-(difluoromethyl)pyridin-4-yl)-6-methyl-2,3-dihydro-1H-pyrrolizine-5-carboxamide]
19.8	Cc1c(C(=O)C(=O)NC2(C(N)=O)CC(F)(F)C2)c2n(c1C(=O)Nc1ccc(F)c(F)c1)CCC2 [Example 121, 7-(2-((1-carbamoyl-3,3-difluorocyclobutyl)amino)-2-oxoacetyl)-N-(3,4-difluorophenyl)-6-methyl-2,3-dihydro-1H-pyrrolizine-5-carboxamide]
1	Cc1c(C(=O)C(=O)NC2(CN3CC4(COC4)C3)CC(F)(F)C2)c2n(c1C(=O)Nc1ccc(F)c(Cl)c1)CCC2 [Example 10, 7-(2-((1-((2-oxa-6-azaspiro[3.3]heptan-6-yl)methyl)-3,3-difluorocyclobutyl)amino)-2-oxoacetyl)-N-(3-chloro-4-fluorophenyl)-6-methyl-2,3-dihydro-1H-pyrrolizine-5-carboxamide]
9.4	Cc1c(C(=O)C(=O)NC2(c3cnn[nH]3)CC2)c2n(c1C(=O)Nc1cc(Cl)ccc1F)CCC2 [Example 86, 7-(2-((1-(1H-1,2,3-triazol-5-yl)cyclopropyl)amino)-2-oxoacetyl)-N-(5-chloro-2-fluorophenyl)-6-methyl-2,3-dihydro-1H-pyrrolizine-5-carboxamide]
9.6	Cc1c(C(=O)C(=O)NC2(c3cnn[nH]3)CC2)c2n(c1C(=O)Nc1ccc(F)cc1)[C@@H]1C[C@@H]1C2 [Example 99, (1aR,6aR)-5-(2-((1-(1H-1,2,3-triazol-5-yl)cyclopropyl)amino)-2-oxoacetyl)-N-(4-fluorophenyl)-4-methyl-1,1a,6,6a-tetrahydrocyclopropa[b]pyrrolizine-3-carboxamide]
15.3	Cc1c(C(=O)C(=O)NC2(c3nnn(C)n3)CC2)c2n(c1C(=O)Nc1ccc(F)c(Cl)c1)CCC2 [Example 50, N-(3-chloro-4-fluorophenyl)-6-methyl-7-(2-((1-(2-methyl-2H-tetrazol-5-yl)cyclopropyl)amino)-2-oxoacetyl)-2,3-dihydro-1H-pyrrolizine-5-carboxamide]
28.8	CNC(=O)C1(NC(=O)C(=O)c2c(C)c(C(=O)Nc3ccc(F)cc3)n3c2C[C@H]2C[C@H]23)CC(F)(F)C1 [Example 95, (1aR,6aR)-5-(2-((3,3-difluoro-1-(methylcarbamoyl)cyclobutyl)amino)-2-oxoacetyl)-N-(4-fluorophenyl)-4-methyl-1,1a,6,6a-tetrahydrocyclopropa[b]pyrrolizine-3-carboxamide]
